Where two headings read alike, the source gives them in different places.
How the values were obtained:
[1] = test system: Key Broadleaf Weed and Crop Species; experiment: Post-Emergent Test II: postemergent herbicidal activity, visual rating after 14 d (Table 7); assay type: in vivo; settings: post-emergence, 336 h; for pest or weed control at 35 g/ha: 35 g ai/ha; for pest or weed control at 70 g/ha: 70 g ai/ha; for pest or weed control at 140 g/ha: 140 g ai/ha
How it was run: (§1)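 Greenhouse plants at first or second true leaf stage sprayed with compound in acetone/DMSO-based spray solution with crop oil concentrate and Triton X-155 at 187 L/ha, tested at highest rate and ½× to 1/16× dilutions; solvent blank controls. Injury rated visually 0–100% versus untreated plants after 14 d.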

[2] = test system: Key Grass and Sedge Weeds as well as Grass Crops; experiment: Post-Emergent Test II: postemergent herbicidal activity, visual rating after 14 d (Table 8); assay type: in vivo; settings: post-emergence, 336 h; for pest or weed control at 35 g/ha: 35 g ai/ha; for pest or weed control at 70 g/ha: 70 g ai/ha; for pest or weed control at 140 g/ha: 140 g ai/ha
How it was run: as §1

[3] = lambsquarters (Chenopodium album), read-out: Visual Growth Reduction (%) 14 Days After Application CHEAL
[4] = oilseed rape, canola (Brassica napus), read-out: Visual Growth Reduction (%) 14 Days After Application BRSNN
[5] = redroot pigweed (Amaranthus retroflexus), read-out: Visual Growth Reduction (%) 14 Days After Application AMARE
[6] = sunflower (Helianthus annuus), read-out: Visual Growth Reduction (%) 14 Days After Application HELAN
[7] = velvetleaf (Abutilon theophrasti), read-out: Visual Growth Reduction (%) 14 Days After Application ABUTH
[8] = wild poinsettia (Euphorbia heterophylla), read-out: Visual Growth Reduction (%) 14 Days After Application EPHHL
[9] = barnyardgrass (Echinochloa crus-galli), read-out: Visual Growth Reduction (%) 14 Days After Application ECHCG
[10] = giant foxtail (Setaria faberi), read-out: Visual Growth Reduction (%) 14 Days After Application SETFA
[11] = maize, corn (Zea mays), read-out: Visual Growth Reduction (%) 14 Days After Application ZEAMX
[12] = rice (Oryza sativa), read-out: Visual Growth Reduction (%) 14 Days After Application ORYSA
[13] = wheat, spring (Triticum aestivum), read-out: Visual Growth Reduction (%) 14 Days After Application TRZAS
[14] = yellow nutsedge (Cyperus esculentus), read-out: Visual Growth Reduction (%) 14 Days After Application CYPES

SMILES | pest or weed control at 35 g/ha [1, 3] | pest or weed control at 70 g/ha [1, 3] | pest or weed control at 140 g/ha [1, 3] | pest or weed control at 35 g/ha [1, 4] | pest or weed control at 70 g/ha [1, 4] | pest or weed control at 140 g/ha [1, 4] | pest or weed control at 35 g/ha [1, 5] | pest or weed control at 70 g/ha [1, 5] | pest or weed control at 140 g/ha [1, 5] | pest or weed control at 35 g/ha [1, 6] | pest or weed control at 70 g/ha [1, 6] | pest or weed control at 140 g/ha [1, 6] | pest or weed control at 35 g/ha [1, 7] | pest or weed control at 70 g/ha [1, 7] | pest or weed control at 140 g/ha [1, 7] | pest or weed control at 35 g/ha [1, 8] | pest or weed control at 70 g/ha [1, 8] | pest or weed control at 140 g/ha [1, 8] | pest or weed control at 70 g/ha [2, 9] | pest or weed control at 140 g/ha [2, 9] | further results
COC(=O)c1nc(-c2ccc3c(c2)OC(F)(F)O3)nc(N)c1OC [Compound 62] | 0 to 29% | 0 to 29% | 0 to 29% | 45 to 59% | 45 to 59% | 60 to 74% | 0 to 29% | 0 to 29% | 0 to 29% | 85 to 94% | 75 to 84% | 95 to 100% | 45 to 59% | 85 to 94% | 85 to 94% | 95 to 100% | 95 to 100% | 95 to 100% | 85 to 94% | 95 to 100% | pest or weed control at 35 g/ha [2, 9]: 85 to 94%; pest or weed control at 35 g/ha [2, 10]: 0 to 29%; pest or weed control at 70 g/ha [2, 10]: 30 to 44%; pest or weed control at 140 g/ha [2, 10]: 60 to 74%; pest or weed control at 35 g/ha [2, 11]: 95 to 100%; pest or weed control at 70 g/ha [2, 11]: 95 to 100%; pest or weed control at 140 g/ha [2, 11]: 95 to 100%; pest or weed control at 35 g/ha [2, 12]: 0 to 29%; pest or weed control at 70 g/ha [2, 12]: 0 to 29%; pest or weed control at 140 g/ha [2, 12]: 0 to 29%; pest or weed control at 35 g/ha [2, 13]: 0 to 29%; pest or weed control at 70 g/ha [2, 13]: 0 to 29%; pest or weed control at 140 g/ha [2, 13]: 0 to 29%; pest or weed control at 35 g/ha [2, 14]: 95 to 100%; pest or weed control at 70 g/ha [2, 14]: 95 to 100%; pest or weed control at 140 g/ha [2, 14]: 95 to 100%
COc1c(N)nc(-c2ccc3c(c2)OC(F)(F)O3)nc1C(=O)O [Compound 63] | 0 to 29% | 0 to 29% | 0 to 29% | 60 to 74% | 75 to 84% | 75 to 84% | 0 to 29% | 30 to 44% | 60 to 74% | 85 to 94% | 85 to 94% | 85 to 94% | 85 to 94% | 60 to 74% | 85 to 94% | 95 to 100% | 95 to 100% | 95 to 100% | 95 to 100% | 95 to 100% | pest or weed control at 35 g/ha [2, 10]: 75 to 84%; pest or weed control at 70 g/ha [2, 10]: 95 to 100%; pest or weed control at 140 g/ha [2, 10]: 95 to 100%; pest or weed control at 35 g/ha [2, 11]: 95 to 100%; pest or weed control at 70 g/ha [2, 11]: 95 to 100%; pest or weed control at 140 g/ha [2, 11]: 95 to 100%; pest or weed control at 35 g/ha [2, 12]: 0 to 29%; pest or weed control at 70 g/ha [2, 12]: 0 to 29%; pest or weed control at 140 g/ha [2, 12]: 0 to 29%; pest or weed control at 35 g/ha [2, 13]: 45 to 59%; pest or weed control at 70 g/ha [2, 13]: 45 to 59%; pest or weed control at 140 g/ha [2, 13]: 45 to 59%; pest or weed control at 35 g/ha [2, 14]: 95 to 100%; pest or weed control at 70 g/ha [2, 14]: 95 to 100%; pest or weed control at 140 g/ha [2, 14]: 95 to 100%
COC(=O)c1nc(-c2cc3c(cc2F)OC(F)(F)O3)nc(N)c1OC [Compound 64] | 0 to 29% | 0 to 29% | 0 to 29% | 0 to 29% | 0 to 29% | 0 to 29% | 0 to 29% | 0 to 29% | 0 to 29% | 0 to 29% | 60 to 74% | 75 to 84% | 0 to 29% | 0 to 29% | 0 to 29% | 75 to 84% | 85 to 94% | 95 to 100% | 45 to 59% | 75 to 84% | pest or weed control at 35 g/ha [2, 9]: 0 to 29%; pest or weed control at 35 g/ha [2, 10]: 0 to 29%; pest or weed control at 70 g/ha [2, 10]: 45 to 59%; pest or weed control at 140 g/ha [2, 10]: 75 to 84%; pest or weed control at 35 g/ha [2, 11]: 30 to 44%; pest or weed control at 70 g/ha [2, 11]: 45 to 59%; pest or weed control at 140 g/ha [2, 11]: 75 to 84%; pest or weed control at 35 g/ha [2, 12]: 0 to 29%; pest or weed control at 70 g/ha [2, 12]: 0 to 29%; pest or weed control at 140 g/ha [2, 12]: 0 to 29%; pest or weed control at 35 g/ha [2, 13]: 0 to 29%; pest or weed control at 70 g/ha [2, 13]: 30 to 44%; pest or weed control at 140 g/ha [2, 13]: 30 to 44%; pest or weed control at 35 g/ha [2, 14]: 30 to 44%; pest or weed control at 70 g/ha [2, 14]: 60 to 74%; pest or weed control at 140 g/ha [2, 14]: 85 to 94%
COc1c(N)nc(-c2ccc3c(c2F)OC(F)(F)O3)nc1C(=O)O [Compound 66] | 45 to 59% | 85 to 94% | 95 to 100% | 60 to 74% | 75 to 84% | 85 to 94% | 95 to 100% | 95 to 100% | 95 to 100% | 75 to 84% | 85 to 94% | 95 to 100% | 75 to 84% | 75 to 84% | 85 to 94% | 95 to 100% | 95 to 100% | 95 to 100% | 95 to 100% | 95 to 100% | pest or weed control at 35 g/ha [2, 9]: 95 to 100%; pest or weed control at 35 g/ha [2, 10]: 75 to 84%; pest or weed control at 70 g/ha [2, 10]: 75 to 84%; pest or weed control at 140 g/ha [2, 10]: 85 to 94%; pest or weed control at 35 g/ha [2, 11]: 60 to 74%; pest or weed control at 70 g/ha [2, 11]: 60 to 74%; pest or weed control at 140 g/ha [2, 11]: 75 to 84%; pest or weed control at 35 g/ha [2, 12]: 30 to 44%; pest or weed control at 70 g/ha [2, 12]: 30 to 44%; pest or weed control at 140 g/ha [2, 12]: 30 to 44%; pest or weed control at 35 g/ha [2, 13]: 45 to 59%; pest or weed control at 70 g/ha [2, 13]: 60 to 74%; pest or weed control at 140 g/ha [2, 13]: 60 to 74%; pest or weed control at 35 g/ha [2, 14]: 0 to 29%; pest or weed control at 70 g/ha [2, 14]: 95 to 100%; pest or weed control at 140 g/ha [2, 14]: 95 to 100%
